Reference: PubChem BioAssay AID330 (DTP/NCI, 2004)
“And” between values parts separate entries of the source, which are not always exact repeats. Equal values may be shown once. Toxic doses and inconclusive results are not listed.

Test system: P388 leukemia ip, CD2F1 mice, survival T/C
Test: NCI In Vivo Anticancer Drug Screen. Data for tumor model P388 Leukemia (intraperitoneal) in CD2F1 (CDF1) mice
Conditions: endpoint: median survival time, higher = longer survival
Method in brief: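 Mice carrying the transplanted tumor received test compound or vehicle. Survival was recorded in each group, and the value is the treated-group measurement divided by that of the vehicle-treated control group.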

[1] = dose: 50.0 mg/kg/injection, schedule: Q01DX009 (ip), vehicle: saline with Tween-80
[2] = dose: 100.0 mg/kg/injection, schedule: Q01DX009 (ip), vehicle: saline with Tween-80
[3] = dose: 200.0 mg/kg/injection, schedule: Q01DX009 (ip), vehicle: saline with Tween-80
[4] = dose: 25.0 mg/kg/injection, schedule: Q01DX009 (ip), vehicle: Klucel (hydroxypropylcellulose) (HPC)
[5] = dose: 50.0 mg/kg/injection, schedule: Q01DX009 (ip), vehicle: saline
[6] = dose: 100.0 mg/kg/injection, schedule: Q01DX009 (ip), vehicle: saline
[7] = dose: 50.0 mg/kg/injection, schedule: Q01DX005 (ip), vehicle: saline with Tween-80
[8] = dose: 100.0 mg/kg/injection, schedule: Q01DX005 (ip), vehicle: saline with Tween-80

For `COC(/C=N/OC(C)=O)c1ccccc1` (configuration not stated), the T/C (dose: 25.0 mg/kg/injection, schedule: Q04DX003 (ip), vehicle: saline with Tween-80) was 98 % of control and 99 % of control and the T/C (dose: 50.0 mg/kg/injection, schedule: Q04DX003 (ip), vehicle: saline with Tween-80) was 102 % of control and 92 % of control.
For `Cn1cccc1[N+](=O)[O-]`, the T/C (dose: 12.5 mg/kg/injection, schedule: Q01DX009 (ip), vehicle: saline with Tween-80) was 100 % of control, the T/C (dose: 25.0 mg/kg/injection, schedule: Q01DX009 (ip), vehicle: saline with Tween-80) was 101 % of control and the T/C [1] was 100 % of control and 104 % of control. For the same molecule, the T/C [2] was 101 % of control and the T/C [3] was 108 % of control.
For `CCCOC1C=C(C)C(=O)O1` (configuration not stated), the T/C (dose: 40.5 mg/kg/injection, schedule: Q01DX005 (ip), vehicle: saline with Tween-80) was 103 % of control, the T/C (dose: 81.0 mg/kg/injection, schedule: Q01DX005 (ip), vehicle: saline with Tween-80) was 104 % of control and the T/C (dose: 162.0 mg/kg/injection, schedule: Q01DX005 (ip), vehicle: saline with Tween-80) was 112 % of control.
In the case of `O=c1[nH]/c(=C/c2ccccc2)c(=O)[nH]/c1=C/C=C/c1ccccc1`, the T/C [4] is reported as 107 % of control, the T/C (dose: 50.0 mg/kg/injection, schedule: Q01DX009 (ip), vehicle: Klucel (hydroxypropylcellulose) (HPC)) is reported as 104 % of control and the T/C (dose: 100.0 mg/kg/injection, schedule: Q01DX009 (ip), vehicle: Klucel (hydroxypropylcellulose) (HPC)) is reported as 102 % of control.
In the case of `C=CC1(OC)CC1C(=O)OCC` (configuration not stated), the T/C (dose: 43.0 mg/kg/injection, schedule: Q01DX005 (ip), vehicle: Klucel (hydroxypropylcellulose) (HPC)) is reported as 99 % of control, the T/C (dose: 86.0 mg/kg/injection, schedule: Q01DX005 (ip), vehicle: Klucel (hydroxypropylcellulose) (HPC)) is reported as 112 % of control and the T/C (dose: 172.0 mg/kg/injection, schedule: Q01DX005 (ip), vehicle: Klucel (hydroxypropylcellulose) (HPC)) is reported as 97 % of control.
In the case of `[Cl][Co][Cl].[NH-]CC[N-]CC[N-]CC[NH-]`, the T/C (dose: 12.5 mg/kg/injection, schedule: Q01DX005 (ip), vehicle: saline) is reported as 100 % of control, the T/C (dose: 25.0 mg/kg/injection, schedule: Q01DX005 (ip), vehicle: saline) is reported as 104 % of control and the T/C (dose: 50.0 mg/kg/injection, schedule: Q01DX005 (ip), vehicle: saline) is reported as 114 % of control and 107 % of control and 113 % of control. The T/C [5] was 102 % of control, the T/C (dose: 100.0 mg/kg/injection, schedule: Q01DX005 (ip), vehicle: saline) was 109 % of control and the T/C [6] was 100 % of control.
`COC(C(OC)N1CCOCC1)N1CCOCC1` (configuration not stated) was tested, and the T/C [1] was 100 % of control, the T/C [2] was 104 % of control and the T/C [3] was 113 % of control.
For `N#Cc1cnn(-c2cc(Cl)c(Cl)cc2Cl)c1N`, the T/C (dose: 100.0 mg/kg/injection, schedule: Q04DX003 (ip), vehicle: saline with Tween-80) was 99 % of control, the T/C (dose: 200.0 mg/kg/injection, schedule: Q04DX003 (ip), vehicle: saline with Tween-80) was 103 % of control and the T/C (dose: 400.0 mg/kg/injection, schedule: Q04DX003 (ip), vehicle: saline with Tween-80) was 111 % of control.
For `Nc1ccc2c(n1)NCC/C2=N\Nc1ccc(Br)cc1`, the T/C [1] was 103 % of control, the T/C [2] was 104 % of control and the T/C [3] was 106 % of control.
`CC1CCN(C(=S)NNC(C)c2cc3ccccc3cn2)CC1` (configuration not stated) was tested, and the T/C (dose: 6.25 mg/kg/injection, schedule: Q01DX005 (ip), vehicle: saline with Tween-80) was 114 % of control.
`Cc1cccc(N2CCN(C(=O)/C(=C/c3ccccc3)NC(=O)c3ccccc3)CC2)c1` was tested, and the T/C [7] was 93 % of control and the T/C [8] was 89 % of control.
With `C=C(Cl)C(O)CNCCCC` (configuration not stated) the T/C [7] was 110 % of control and the T/C [8] was 110 % of control.
With `COc1ccc(C2NC(c3ccc(OC)cc3)C3CCCC2C3O)cc1` (configuration not stated) the T/C (dose: 100.0 mg/kg/injection, schedule: Q04DX003 (ip), vehicle: saline) was 100 % of control, the T/C (dose: 200.0 mg/kg/injection, schedule: Q04DX003 (ip), vehicle: saline) was 97 % of control and the T/C (dose: 400.0 mg/kg/injection, schedule: Q04DX003 (ip), vehicle: saline) was 94 % of control.
In the case of `COC(OC)C(C)(C)NC1CCCCC1`, the T/C [5] is reported as 105 % of control and the T/C [6] is reported as 104 % of control.
With `COc1ccc2nc(C)cc(N/N=C/c3cccnc3)c2c1` the T/C (dose: 6.25 mg/kg/injection, schedule: Q01DX009 (ip), vehicle: Klucel (hydroxypropylcellulose) (HPC)) was 101 % of control, the T/C (dose: 12.5 mg/kg/injection, schedule: Q01DX009 (ip), vehicle: Klucel (hydroxypropylcellulose) (HPC)) was 104 % of control and the T/C [4] was 113 % of control.
For `CC1(C)[C@@H]2CC[C@H](OC(=O)/C=C/c3ccccc3)[C@@H]2[C@@H]2CC[C@H]3O[C@]321`, the T/C (dose: 80.0 mg/kg/injection, schedule: Q01DX001 (ip), vehicle: Klucel (hydroxypropylcellulose) (HPC)) was 109 % of control, the T/C (dose: 160.0 mg/kg/injection, schedule: Q01DX001 (ip), vehicle: Klucel (hydroxypropylcellulose) (HPC)) was 102 % of control and the T/C (dose: 320.0 mg/kg/injection, schedule: Q01DX001 (ip), vehicle: Klucel (hydroxypropylcellulose) (HPC)) was 100 % of control.
